In patent US5049548A, “Renin-inhibitory di-, tri-, and tetrapeptides” (Merck & Co., Inc., priority 1989, dated 1991):
Square brackets hold non-standard residues; d marks the D form. Peptide text beside a SMILES is read from it. * marks the point of attachment. Sta = CC(C)C[C@H](N)[C@@H](O)CC(=O)O; Isovaleryl = CC(C)CC(=O)*

Assays:
[1] = target: T1, human plasma renin (Homo sapiens, UniProt P00797); assay: Renin-inhibitory potency against human plasma renin; assay type: biochemical
T1 construct: determined against human plasma renin; from tissue; host or cells: human plasma
T1 sequence (P00797 67-406): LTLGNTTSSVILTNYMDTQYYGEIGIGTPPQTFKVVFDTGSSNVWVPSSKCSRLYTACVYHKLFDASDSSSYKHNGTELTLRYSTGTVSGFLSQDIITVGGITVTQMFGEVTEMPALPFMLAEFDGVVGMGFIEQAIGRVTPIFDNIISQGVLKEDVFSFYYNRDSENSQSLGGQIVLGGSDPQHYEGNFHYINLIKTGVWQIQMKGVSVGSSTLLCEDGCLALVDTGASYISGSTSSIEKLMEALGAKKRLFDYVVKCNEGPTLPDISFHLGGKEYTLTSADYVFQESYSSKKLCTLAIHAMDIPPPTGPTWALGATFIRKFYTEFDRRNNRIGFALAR
Protocol: Renin-inhibitors potencies were determined against human plasma renin and are expressed as IC50 values.

[2] = tested on: hog renin; conditions: after the injection of hog renin into nephrectomized rats; cited from earlier work

Row | IC50 [1] | Compound | blood pressure in vivo [2]
1 | – | CC(C)CC(=O)N[C@H](C(=O)N[C@H](C(=O)N[C@@H](CC(C)C)[C@@H](O)CC(=O)N[C@@H](C)C(=O)N[C@@H](CC(C)C)[C@@H](O)CC(=O)O)C(C)C)C(C)C [pepstatin] (Isovaleryl-VV[Sta]A[Sta]-OH) | reduces blood pressure in vivo
2 | 1.4 nM | N^α -(Quinuclidin-3(S)-yl)Phe-His-Cal[CH(OH)CH2 ]Val-NH-n-butyl [Example 27] | –
3 | 2 nM | N^α -(Quinuclidin-3-yl)Phe-His-ACHPA-Ile-NHCH2 (pyridin-4-yl) [Example 24] | –
4 | 7 nM | N^α -[(pyridin-2-yl)methyl]Phe-His-ACHPA-Ile-NHCH2 (pyridin-4-yl) [Example 31] | –
5 | 1.7 nM | [N^α -(N-Methylquinuclidin-3(S)-yl)Phe-His-ACHPA-Ile-NH-CH2 -(pyridin-4-yl)]^+ I^- [Example 23] | –

Row | Compound | IC50 [1] | blood pressure in vivo [2]
6 | CCCC[C@H](NC(=O)[C@H](Cc1ccccc1)N[C@@H]1CN2CCC1CC2)C(=O)N[C@@H](CC1CCCCC1)[C@@H](O)CC(=O)N[C@H](C(=O)NCc1ccncc1)[C@@H](C)CC [Example 20, N^α -(quinuclidin-3-yl)Phe-Nle-ACHPA-Ile-AMP] | 5 nM | –
7 | CCCC[C@H](NC(=O)[C@H](Cc1ccccc1)N(C)[C@@H]1CN2CCC1CC2)C(=O)N[C@@H](CC1CCCCC1)[C@@H](O)CC(=O)N[C@H](C(=O)NCc1ccncc1)[C@@H](C)CC [Example 21, N^α -Methyl-N^α -(quinuclidin-3(S)-yl)Phe-Nle-ACHPA-Ile-NHCH2 (pyridin-4-yl)] | 150 nM | –
8 | CCCC[C@H](NC(=O)[C@H](Cc1ccccc1)N[C@@H]1CN2CCC1CC2)C(=O)N[C@@H](CC1CCCCC1)[C@@H](O)C(=O)OCC [Example 30, N^α -(Quinuclidin-3(S)-yl)Phe-Nle-norACHPA-OEt] | 91 nM | –
